Assay results taken from PubChem BioAssay AID2060488 (Molecular Pharmacology Branch, DTP, NCI, 2025).
“And” between values parts separate entries of the source, which are not always exact repeats. Equal entries are not always repeated.

Test system: 966289-007-R4-J1-PDC complex spheroid viability
Test: Anticancer human tumor 966289-007-R4-J1-PDC patient-derived pancreatic adenocarcinoma cell line growth inhibition [GQUAD]
Settings: for viability, T/C: stronger effect = lower value
From the text: DNA G-quadruplex Stabilizer Agents in Combinations in Complex Spheroids
A high-throughput screen of multi-cell type tumor spheroids was designed to identify active combinations of DNA G-quadruplex stabilizer agents and targeted small molecules. Complex spheroids include a stromal component modeled by human endothelial cells (HUVEC) and fibroblasts modeled by human mesenchymal stem cells (MSCs). The concentration ranges selected for each drug and investigational agent were based upon clinically achievable concentrations if the clinical Cmax of the agent was known.
Compounds. The drugs and investigational agents: pidnarulex (CX-5461; NSC782164), APTO-253 (NSC789042), BRACO-19 (NSC847499), peposertib (NSC802822), ceralasertib (NSC780249), elimusertib (NSC800525), camonsertib (NSC841442), AZD-1390 (NSC803789), olaparib (NSC753686), talazoparib (NSC767125), ART-558 (NSC835418), sotorasib (NSC818433), MRTX-1133 (NSC836407), SN-38 (NSC673596), topotecan (NSC609699), etoposide (NSC141540), doxorubicin (NSC123127), gemcitabine (NSC613327), 5-fluorouracil (NSC19893), paclitaxel (NSC125973), vemurafenib (NSC761431), panobinostat (NSC761190), R-306465 (JNJ-16241199; NSC773264), adavosertib (NSC754352), TP-3654 (NSC805149), carboplatin (NSC241240), KSQ-4279 (NSC840948), and staurosporine (NSC755774) were obtained from the National Cancer Institute (NCI) Developmental Therapeutics Program Chemical Repository (34). The FDA-approved anticancer drug set is available from the NCI Developmental Therapeutics Program. […] The stock solutions were prepared in dimethyl sulfoxide (DMSO, Sigma-Aldrich, St. Louis, MO, cat. D2650) at 800-fold the tested concentration and stored at -70 degrees C prior to their use. All drugs and investigational agents were tested over a range starting from a high concentration at or near the clinical Cmax and decreasing in half-log increments. If the clinical Cmax for an agent had not been determined, the highest concentration tested was 10 microM.
2.3 Cell Culture. All cells were maintained in an incubator at 37 degrees C and 5% CO2 with 95% humidity. The PDC lines were cultured according to standard operating procedures established by the NCI PDMR. All PDCs were thawed and cultured in Matrigel-coated flasks prepared with a working solution of 1X Ham's F-12 nutrient mix, without supplementation (Invitrogen, cat. 11765054), 100 U/mL penicillin-streptomycin (Invitrogen, cat. 15140122), and 2.5% Matrigel (Corning Inc., cat. 354248) for the first three passages. The 857933-349-R-J2-PDC line was cultured in 6C/Colon 1B media, which includes advanced DMEM/F-12 (Thermo Fisher Scientific, cat. 12634028), 10 mM HEPES (Thermo Fisher Scientific, cat. 15630080), 1X GlutaMAX supplement (Thermo Fisher Scientific, cat. 35050061), 0.1 mg/mL primocin (InvivoGen, cat. ant-pm-2), 10% defined fetal bovine serum, heat inactivated (HyClone Laboratories Inc., cat. SH30070.03HI), 50% L-WRN conditioned media (ATCC, cat. CRL-3276), 1.25 mM N-Acetyl-L-cysteine (Sigma-Aldrich, cat. A9165), 10 mM nicotinamide (Sigma-Aldrich, cat. N0636), 1X B-27 supplement (Thermo Fisher Scientific, cat. 17504044), 1X N-2 supplement (Thermo Fisher Scientific, cat. 17502048), 10 microM Y-27632 dihydrochloride (Tocris Bioscience, cat. 1254), and 50 ng/mL human EGF recombinant protein (Thermo Fisher Scientific, cat. PHG0311). The 485176-168-R4-J1-PDC line was cultured in Panc media, which includes all 6C/Colon 1B media components plus 100 ng/mL human FGF-10 (Thermo Fisher Scientific, cat. 100-26), 500 nM SB-431542 (Selleckchem, cat. S1067), and gastrin (Tocris, cat. 3006).
[…]

[1] = curve of first compound, second compound 0.0316 µM
[2] = curve of first compound, second compound 0.1 µM
[3] = curve of first compound, second compound 0.316 µM
[4] = curve of first compound, second compound 1 µM
[5] = curve of first compound, second compound 3.16 µM
[6] = curve of first compound, second compound 10 µM
[7] = second compound 0.0316 µM, first compound 0.0316 µM
[8] = second compound 0.0316 µM, first compound 0.1 µM
[9] = second compound 0.0316 µM, first compound 0.316 µM
[10] = second compound 0.0316 µM, first compound 1 µM
[11] = second compound 0.0316 µM, first compound 3.16 µM
[12] = second compound 0.0316 µM, first compound 10 µM
[13] = second compound 0.1 µM, first compound 0.0316 µM
[14] = second compound 0.1 µM, first compound 0.1 µM
[15] = second compound 0.1 µM, first compound 0.316 µM
[16] = second compound 0.1 µM, first compound 1 µM
[17] = second compound 0.1 µM, first compound 3.16 µM
[18] = second compound 0.1 µM, first compound 10 µM
[19] = second compound 0.316 µM, first compound 0.0316 µM
[20] = second compound 0.316 µM, first compound 0.1 µM
[21] = second compound 0.316 µM, first compound 0.316 µM
[22] = second compound 0.316 µM, first compound 1 µM
[23] = second compound 0.316 µM, first compound 3.16 µM
[24] = second compound 0.316 µM, first compound 10 µM
[25] = second compound 1 µM, first compound 0.0316 µM
[26] = second compound 1 µM, first compound 0.1 µM
[27] = second compound 1 µM, first compound 0.316 µM
[28] = second compound 1 µM, first compound 1 µM
[29] = second compound 1 µM, first compound 3.16 µM
[30] = second compound 1 µM, first compound 10 µM
[31] = second compound 3.16 µM, first compound 0.0316 µM
[32] = second compound 3.16 µM, first compound 0.1 µM
[33] = second compound 3.16 µM, first compound 0.316 µM
[34] = second compound 3.16 µM, first compound 1 µM
[35] = second compound 3.16 µM, first compound 3.16 µM
[36] = second compound 3.16 µM, first compound 10 µM
[37] = second compound 10 µM, first compound 0.0316 µM
[38] = second compound 10 µM, first compound 0.1 µM
[39] = second compound 10 µM, first compound 0.316 µM
[40] = second compound 10 µM, first compound 1 µM
[41] = second compound 10 µM, first compound 3.16 µM
[42] = second compound 10 µM, first compound 10 µM
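Also: spheroids exposed to the agents for seven days before readout.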
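For viability, T/C in this document: percent viability relative to DMSO vehicle control wells taken as 100%.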

In the case of C=CCn1c(=O)c2cnc(Nc3ccc(N4CCN(C)CC4)cc3)nc2n1-c1cccc(C(C)(C)O)n1, the viability, T/C (compound 0.0316 µM) is reported as 102% and 99.9% and 97.9%, the viability, T/C (compound 0.1 µM) is reported as 105% and 97.2% and 108% and the viability, T/C (compound 0.316 µM) is reported as 110% and 113% and 120%. The viability, T/C (compound 1 µM) was 101% and 105% and 81.8%, the viability, T/C (compound 3.16 µM) was 4.65% and 8.05% and 2.6% and the viability, T/C (compound 10 µM) was 1.72% and 1.84% and 1.48%. The IC50 (curve of compound) was 1840 nM and 1910 nM and 1580 nM.

C=CCn1c(=O)c2cnc(Nc3ccc(N4CCN(C)CC4)cc3)nc2n1-c1cccc(C(C)(C)O)n1 + CN(C)c1ccc(Nc2c3ccc(NC(=O)CCN4CCCC4)cc3nc3cc(NC(=O)CCN4CCCC4)ccc23)cc1 was tested, and the IC50 [1] was 1850 nM, the IC50 [2] was 1880 nM and the IC50 [3] was 1900 nM. It also gave an IC50 [4] of 1900 nM, an IC50 [5] of 1750 nM and an IC50 [6] of 1320 nM. The viability, T/C [7] was 104%, the viability, T/C [8] was 103% and the viability, T/C [9] was 113%. The viability, T/C [10] was 99.8%, the viability, T/C [11] was 6.96% and the viability, T/C [12] was 2.02%. It also gave a viability, T/C [13] of 99.6%, a viability, T/C [14] of 103% and a viability, T/C [15] of 111%. The viability, T/C [16] was 101%, the viability, T/C [17] was 8.04% and the viability, T/C [18] was 1.98%. For the same compound, the viability, T/C [19] was 96.8%, the viability, T/C [20] was 97.2% and the viability, T/C [21] was 110%. The viability, T/C [22] was 102%, the viability, T/C [23] was 8.92% and the viability, T/C [24] was 1.93%. The viability, T/C [25] was 95.3%, the viability, T/C [26] was 108% and the viability, T/C [27] was 113%. For the same compound, the viability, T/C [28] was 102%, the viability, T/C [29] was 8.33% and the viability, T/C [30] was 2.74%. It also gave a viability, T/C [31] of 104%, a viability, T/C [32] of 104% and a viability, T/C [33] of 112%. For the same compound, the viability, T/C [34] was 88.2%, the viability, T/C [35] was 9.59% and the viability, T/C [36] was 4.27%. The viability, T/C [37] was 105%, the viability, T/C [38] was 102% and the viability, T/C [39] was 101%. It also gave a viability, T/C [40] of 64.6%, a viability, T/C [41] of 3.41% and a viability, T/C [42] of 1.03%.

Compound C=CCn1c(=O)c2cnc(Nc3ccc(N4CCN(C)CC4)cc3)nc2n1-c1cccc(C(C)(C)O)n1 + Cc1[nH]c2ccc(F)cc2c1-c1nc2c3cccnc3c3ncccc3c2[nH]1 has an IC50 [1] of 1830 nM, an IC50 [2] of 1830 nM and an IC50 [3] of 1840 nM. It also gave an IC50 [4] of 1850 nM, an IC50 [5] of 1760 nM and an IC50 [6] of 1760 nM. The viability, T/C [7] was 101%, the viability, T/C [8] was 96.7% and the viability, T/C [9] was 112%. The viability, T/C [10] was 99.7%, the viability, T/C [11] was 4.85% and the viability, T/C [12] was 1.9%. For the same compound, the viability, T/C [13] was 99.5%, the viability, T/C [14] was 98.9% and the viability, T/C [15] was 110%. For the same compound, the viability, T/C [16] was 99.9%, the viability, T/C [17] was 4.92% and the viability, T/C [18] was 2.17%. The viability, T/C [19] was 97.5%, the viability, T/C [20] was 103% and the viability, T/C [21] was 111%. The viability, T/C [22] was 98%, the viability, T/C [23] was 7.35% and the viability, T/C [24] was 1.74%. The viability, T/C [25] was 95.7%, the viability, T/C [26] was 98.3% and the viability, T/C [27] was 111%. It also gave a viability, T/C [28] of 100%, a viability, T/C [29] of 6.22% and a viability, T/C [30] of 2%. The viability, T/C [31] was 102%, the viability, T/C [32] was 109% and the viability, T/C [33] was 109%. For the same compound, the viability, T/C [34] was 92.9%, the viability, T/C [35] was 5.37% and the viability, T/C [36] was 2.62%. The viability, T/C [37] was 106%, the viability, T/C [38] was 107% and the viability, T/C [39] was 109%. The viability, T/C [40] was 93.5%, the viability, T/C [41] was 4.68% and the viability, T/C [42] was 2.33%.
